Measurements as given in publication PMC2481421, “Gene expression response in target organ and whole blood varies as a function of target organ injury phenotype” (Genome Biology, 2008).
Values joined by “and” are separate entries in the source; they are usually repeats but may differ in a detail not shown here. Identical values can stand only once. “Also recorded” adds a separate entry of the source.

Tests used:
[1] = In-life observations: body weight, gross findings before and at necropsy; format: in vivo, Male Fischer 344/N rats; settings: individual animals
Description: Doses were determined with pilot experiments. […] Serum was collected for clinical chemistry.

liver = experiment: Liver histopathology (H&E sections of left liver lobe, severity graded) after a single dose; settings: for Primary site of livery injury: rat, single administration
Description: The animals were acclimated for 14 days and observed for absence of disease.
Doses were determined with pilot experiments. For each chemical, doses that elicited a sub-toxic ('low'), a moderately toxic ('medium') or a overtly toxic ('high') response 24 hours after treatment were selected. […] For each compound, control animal groups were treated with vehicle alone. All animals were fasted for 12-18 hours prior to exposure. Groups of four to six animals were dosed between 8:30 and 9:30 a.m.; thereafter, feed was provided ad libitum. After 6, 24 or 48 hours of treatment, animals were anesthetized by isoflurane anesthesia. Whole blood was collected via retro-orbital plexus for hematology and gene expression analysis. Serum was collected for clinical chemistry. The animals were euthanized while under anesthesia by cervical dislocation and necropsied within 4 minutes of sacrifice. The left liver lobe was promptly removed and two defined cross sections were placed in 10% neutral buffered formalin for subsequent histopathology.
The cross sections that were fixed by immersion in 10% neutral buffered formalin (see 'In-life studies' section above) were transferred to histology grade alcohol for 18-24 hours after necropsy. Tissues were then processed, embedded in paraffin, sectioned at 5 microns, and stained with hematoxylin and eosin. A pathologist completed the initial microscopic evaluation of each liver sample for a given compound. […] An independent pathology quality assessment review was performed by a second pathologist on the initial histopathological findings.

[2] = I.P., PBS vehicle, 25 mg/kg, 48 hours
[3] = I.P., PBS vehicle, 100 mg/kg, 48 hours
[4] = I.P., PBS vehicle, 400 mg/kg, 48 hours
[5] = Gavage, corn oil, 10 mg/kg, 6 hours
[6] = Gavage, corn oil, 10 mg/kg, 24 hours
[7] = Gavage, corn oil, 10 mg/kg, 48 hours
[8] = Gavage, corn oil, 30 mg/kg, 24 hours
[9] = Gavage, corn oil, 50 mg/kg, 6 hours
[10] = Gavage, corn oil, 50 mg/kg, 24 hours
[11] = Gavage, corn oil, 50 mg/kg, 48 hours
[12] = Gavage, corn oil, 300 mg/kg, 6 hours
[13] = Gavage, corn oil, 300 mg/kg, 24 hours
[14] = Gavage, corn oil, 300 mg/kg, 48 hours

In the case of N[C@H]1C(O)O[C@H](CO)[C@H](O)[C@@H]1O (some centres unmarked) [Galactosamine], the “Clin/Ob Prior to Necropsy” value ([1]; 25 mg/kg, I.P., PBS, 6 hours) is reported as “Normal”, the “Gross Findings” value ([1]; 25 mg/kg, I.P., PBS, 6 hours) is reported as “No Gross Findings; also recorded: Liver left lobe mottled, median lobe mottled with dark edges” and the “Clin/Ob Prior to Necropsy” value ([1]; 25 mg/kg, I.P., PBS, 24 hours) is reported as “Normal”. For the same compound, the “Final Body Wt.” value ([1]; 25 mg/kg, I.P., PBS, 24 hours) was 288.30 g and 287.60 g and 307.80 g and 298.50 g, the “Gross Findings” value ([1]; 25 mg/kg, I.P., PBS, 24 hours) was “No Gross Findings” and the “Clin/Ob Prior to Necropsy” value ([1]; 25 mg/kg, I.P., PBS, 48 hours) was “Normal”. For the same compound, the “Final Body Wt.” value ([1]; 25 mg/kg, I.P., PBS, 48 hours) was 291.10 g and 291.80 g and 294.20 g, the “Gross Findings” value ([1]; 25 mg/kg, I.P., PBS, 48 hours) was “No Gross Findings” and the “Clin/Ob Prior to Necropsy” value ([1]; 100 mg/kg, I.P., PBS, 6 hours) was “Normal”. For the same compound, the “Gross Findings” value ([1]; 100 mg/kg, I.P., PBS, 6 hours) was “Liver left lobe mottled, median lobe mottled with dark edges; also recorded: No Gross Findings”, the “Clin/Ob Prior to Necropsy” value ([1]; 100 mg/kg, I.P., PBS, 24 hours) was “Normal” and the “Final Body Wt.” value ([1]; 100 mg/kg, I.P., PBS, 24 hours) was 270.10 g and 280.10 g and 305.10 g and 290.70 g. The “Gross Findings” value ([1]; 100 mg/kg, I.P., PBS, 24 hours) was “No Gross Findings; also recorded: Liver median lobe mottled”, the “Clin/Ob Prior to Necropsy” value ([1]; 400 mg/kg, I.P., PBS, 6 hours) was “Normal” and the “Gross Findings” value ([1]; 400 mg/kg, I.P., PBS, 6 hours) was “No Gross Findings; also recorded: Liver left lobe mottled, median lobe mottled with dark edges”. For the same compound, the “Clin/Ob Prior to Necropsy” value ([1]; 400 mg/kg, I.P., PBS, 24 hours) was “Normal”, the “Final Body Wt.” value ([1]; 400 mg/kg, I.P., PBS, 24 hours) was 270.50 g and 268.20 g and 301.80 g and 280.20 g and the “Gross Findings” value ([1]; 400 mg/kg, I.P., PBS, 24 hours) was “Liver left lobe with dark edges, median lobe mottled; also recorded: Liver left lobe mottled with dark edges, median lobe mottled; also recorded: No Gross Findings; also recorded: Liver left and median lobes dark and mottled”. The “Clin/Ob Prior to Necropsy” value [1, 2] was “Normal”, the “Final Body Wt.” value [1, 2] was 287.20 g and the “Gross Findings” value [1, 2] was “No Gross Findings”. For the same compound, the “Clin/Ob Prior to Necropsy” value [1, 3] was “Normal”, the “Final Body Wt.” value [1, 3] was 284.20 g and 284.00 g and 295.90 g and 294.00 g and the “Gross Findings” value [1, 3] was “No Gross Findings”. The “Clin/Ob Prior to Necropsy” value [1, 4] was “Piloerection, Decreased muscle tone; also recorded: Normal”, the “Final Body Wt.” value [1, 4] was 263.20 g and 263.40 g and 260.90 g and 265.30 g and the “Gross Findings” value [1, 4] was “Liver left and median lobes pale with mildly rough surface and dark edges; also recorded: Liver left lobe firm and pale with minimally rough surface and dark edges, median lobe firm, pale, and mottled with minimally rough surface; also recorded: Liver left lobe pale, mottled, and firm; median lobe pale with dark areas and firm”. The biliary hyperplasia (liver; 48 hours) was “evoked biliary hyperplasia”, the “extent of hepatocellular necrosis, amount of inflammatory cell infiltrates and/or indications of hepatocellular repair (mitosis) across animals” value (liver; high dose, 48 hour) was “variability” and the “Primary site of livery injury” value (liver) was “Random”.

In the case of C[C@H]1C(=O)O[C@@H]2CCN3CC=C(COC(=O)[C@](C)(O)[C@]1(C)O)[C@H]23 [Monocrotaline], the “Clin/Ob Prior to Necropsy” value [1, 5] is reported as “normal”, the “Gross Findings” value [1, 5] is reported as “No Gross Findings” and the “Clin/Ob Prior to Necropsy” value [1, 6] is reported as “normal”. For the same compound, the “Final Body Wt.” value [1, 6] was 224.70 g and 231.10 g and 243.30 g and 240.90 g, the “Gross Findings” value [1, 6] was “No Gross Findings; also recorded: Liver - Herniated diaphragmatic nodule” and the “Clin/Ob Prior to Necropsy” value [1, 7] was “normal”. For the same compound, the “Final Body Wt.” value [1, 7] was 241.60 g and 239.40 g and 266.80 g and 243.40 g, the “Gross Findings” value [1, 7] was “Liver median lobe dark area 1x1x1 mm; also recorded: Liver median lobe red area 2x2x2 mm; also recorded: No Gross Findings; also recorded: Liver median lobe right side with red area 2x1x1 mm” and the “Clin/Ob Prior to Necropsy” value [1, 8] was “Piloerection”. The “Final Body Wt.” value [1, 8] was 224.70 g and 224.00 g and 229.60 g and 222.60 g, the “Gross Findings” value [1, 8] was “Liver left lobe dark and mottled with rough surface, median lobe dark and mottled; also recorded: Liver left and median lobes dark; also recorded: Liver left lobe dark and mottled, median lobe dark; kidney dark” and the “Clin/Ob Prior to Necropsy” value [1, 9] was “normal”. The “Gross Findings” value [1, 9] was “No Gross Findings”, the “Clin/Ob Prior to Necropsy” value [1, 10] was “normal” and the “Final Body Wt.” value [1, 10] was 223.50 g and 226.80 g and 245.00 g and 241.70 g. The “Gross Findings” value [1, 10] was “Liver left lobe mottled, median lobe mottled with minimal roughening of surface; also recorded: No Gross Findings; also recorded: Liver median lobe with dark area 2x2x2 mm”, the “Clin/Ob Prior to Necropsy” value [1, 11] was “normal” and the “Final Body Wt.” value [1, 11] was 231.90 g and 232.10 g and 240.80 g and 232.90 g. The “Gross Findings” value [1, 11] was “Liver left lobe with red area 10x2x2 mm, median lobe dark and mottled; also recorded: Liver left lobe firm, median lobe left side, ventral surface dark, dorsal surface with red area 2x2x2 mm, right side mottled and firm; also recorded: Liver median lobe right and left side with dark lower edges, dorsal surface mottled; also recorded: Liver median lobe with dark edges, right side dark and mottled, dorsal surface dark and mottled with mild roughening of surface”, the “Clin/Ob Prior to Necropsy” value [1, 12] was “normal” and the “Gross Findings” value [1, 12] was “No Gross Findings; also recorded: Liver, median lobe tan; also recorded: Liver, left lobe mottled, median lobe dark on edges, patchy 2x2x3 mm; also recorded: Liver left and median lobes mottled”. For the same compound, the “Primary site of livery injury” value (liver) was “Centrilobular”.

For O=NN1CCOCC1 [N-nitrosomorpholine], the “Clin/Ob Prior to Necropsy” value [1, 5] was “Normal”, the “Gross Findings” value [1, 5] was “No Gross Findings” and the “Clin/Ob Prior to Necropsy” value [1, 6] was “Normal”. The “Final Body Wt.” value [1, 6] was 226.20 g and 225.80 g and 258.80 g and 254.30 g, the “Gross Findings” value [1, 6] was “No Gross Findings” and the “Clin/Ob Prior to Necropsy” value [1, 7] was “Normal”. The “Final Body Wt.” value [1, 7] was 238.00 g and 238.70 g and 249.90 g, the “Gross Findings” value [1, 7] was “No Gross Findings” and the “Clin/Ob Prior to Necropsy” value [1, 9] was “Normal”. The “Gross Findings” value [1, 9] was “No Gross Findings”, the “Clin/Ob Prior to Necropsy” value [1, 10] was “Normal; also recorded: Corneal Opacity, right eye (pre-dose)” and the “Final Body Wt.” value [1, 10] was 225.10 g and 189.30 g and 237.50 g and 242.10 g. The “Gross Findings” value [1, 10] was “Liver posterior aspect of left lobe with dark focus (1x1 mm); also recorded: Liver left and median lobes with minimal roughening of surfaces; also recorded: Liver left and median lobes pale; also recorded: Liver left lobe pale and firm, median lobe firm with minimal roughening of surface”, the “Clin/Ob Prior to Necropsy” value [1, 11] was “Normal” and the “Final Body Wt.” value [1, 11] was 229.00 g and 222.00 g and 233.70 g and 237.20 g. The “Gross Findings” value [1, 11] was “Liver left and median lobes with mild roughening of surfaces; also recorded: Liver left and median lobes firm with minimal roughening of surfaces; also recorded: No Gross Findings”, the “Clin/Ob Prior to Necropsy” value [1, 12] was “Normal; also recorded: Corneal Opacity, right eye (pre-dose)” and the “Gross Findings” value [1, 12] was “No Gross Findings”. The “Clin/Ob Prior to Necropsy” value [1, 13] was “Normal”, the “Final Body Wt.” value [1, 13] was 213.90 g and 207.30 g and 219.00 g and 228.80 g and the “Gross Findings” value [1, 13] was “Liver left lobe mottled with minimal roughening of surface, median lobe with minimal roughening of surface; also recorded: Liver left lobe with minimal roughening of surface, median lobe mottled with minimal roughening of surface; also recorded: Liver left and median lobes with firm with mild roughening of surfaces”. The “Clin/Ob Prior to Necropsy” value [1, 14] was “Ungroomed Appearance”, the “Final Body Wt.” value [1, 14] was 205.40 g and 202.50 g and 201.50 g and 203.90 g and the “Gross Findings” value [1, 14] was “Liver left and median lobes dark with mild roughening of surfaces; median lobe with prominent centrilobular pattern; also recorded: Liver left and median lobes dark with mild roughening of surfaces; median lobe with fibrin on surface; also recorded: Liver left and median lobes firm and dark with mild roughening of surfaces”. The “Primary site of livery injury” value (liver) was “Centrilobular”.
